# How the values were obtained:
# [1] = biological target: Mitogen-activated protein kinase; ERK1/ERK2 (Homo sapiens, UniProt P27361+P28482); assay: Inhibition of ERK1/2 phosphorylation in human PANC-1 cells incubated for 3 hrs; type: cell-based
# [2] = Drug absorption in Balb/c mouse assessed as fraction of drug absorbed into portal vein at 1 mg/kg, […] measured for 24 hrs by UPLC-MS/MS analysis; type: ADME, organism-based; conditions: in vivo
# [3] = Oral bioavailability in Balb/c mouse at 30 mg/kg measured for 24 hrs by UPLC-MS/MS analysis; type: ADME, organism-based; conditions: in vivo
Structure (SMILES),IC50 [1] [nM],FaFg [2] [%],bioavailability [3] [%]
C#Cc1c(F)ccc2cccc(-c3nc4c5c(nc(OC[C@@]67CCCN6C[C@H](F)C7)nc5c3F)N3C[C@H]5CC[C@H](N5)[C@H]3CO4)c12,2,54,37.7
Oc1cc(Cl)c(C2CC2)c(-c2nc3c4c(nc(OC[C@@]56CCCN5C[C@H](F)C6)nc4c2F)N2CC4CCC(N4)C2CO3)c1 (some centres undefined),7,–,–
Oc1cc(-c2nc3c4c(nc(OC[C@@]56CCCN5C[C@H](F)C6)nc4c2F)N2C[C@H]4CC[C@H](N4)[C@H]2CO3)c2c(Cl)cccc2c1,5,–,–
Oc1cc(-c2nc3c4c(nc(OC[C@@]56CCCN5C[C@H](F)C6)nc4c2F)N2CC4CCC(N4)C2CO3)c2c(Cl)cccc2c1 (some centres undefined),33,–,–
C#Cc1cccc2cccc(-c3nc4c5c(nc(OC[C@@]67CCCN6C[C@H](F)C7)nc5c3F)N3C[C@H]5CC[C@H](N5)[C@H]3CO4)c12,10,56.6,39.2
C#Cc1c(F)ccc2cccc(-c3nc4c5c(nc(OC[C@@]67CCCN6C[C@H](F)C7)nc5c3F)N3CC5CCC(N5)C3CO4)c12 (some centres undefined),9,–,–
CCc1c(F)ccc2cc(O)cc(-c3nc4c5c(nc(OC[C@@]67CCCN6C[C@H](F)C7)nc5c3F)N3C[C@H]5CC[C@H](N5)[C@H]3CO4)c12,0.76,–,–
C#Cc1c(F)ccc2cc(O)cc(-c3ncc4c(N5C[C@H]6CC[C@@H](C5)N6)nc(OC[C@@]56CCCN5C[C@H](F)C6)nc4c3F)c12 [MRTX-1133],2.3,0.95,0.66

# From ChEMBL document CHEMBL5360671, “Targeting KRASG12D Mutations: Discovery of Small Molecule Inhibitors for the Potential Treatment of Intractable Cancers” (ACS Med Chem Lett, 2023)
